From PubChem BioAssay (NCI)
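Growth conditions: 96-well plates. Treatment: test compound, 48 hours, 5 concentrations. Analysis: linear interpolation between bracketing concentrations; unreached endpoints set to highest concentration. The concentration for 50% growth inhibition is given as GI50. TGI: total growth inhibition.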

Legend:
Experiment in all cases: NCI anticancer screen, dose series, 48 h
OVCAR-8 ovarian = system: OVCAR-8 ovarian
SK-MEL-28 melanoma = system: SK-MEL-28 melanoma
UACC-257 melanoma = system: UACC-257 melanoma
A549 NSCLC = system: A549 NSCLC
OVCAR-5 ovarian = system: OVCAR-5 ovarian
NCI/ADR-RES ovarian = system: NCI/ADR-RES ovarian
MDA-N = system: MDA-N
MALME-3M melanoma = system: MALME-3M melanoma
NCI-H460 lung = system: NCI-H460 lung
SR leukemia = system: SR leukemia

| SMILES | TGI (OVCAR-8 ovarian) [µM] | TGI (SK-MEL-28 melanoma) [µM] | TGI (UACC-257 melanoma) [µM] | TGI (A549 NSCLC) [µM] | TGI (OVCAR-5 ovarian) [µM] | TGI (NCI/ADR-RES ovarian) [µM] | TGI (MDA-N) [µM] | TGI (MALME-3M melanoma) [µM] | TGI (NCI-H460 lung) [µM] | TGI (SR leukemia) [µM] | GI50 (NCI/ADR-RES ovarian) [nM] | GI50 (NCI-H460 lung) [nM] | GI50 (OVCAR-8 ovarian) [nM] | GI50 (MALME-3M melanoma) [nM] | GI50 (SK-MEL-28 melanoma) [nM] | GI50 (UACC-257 melanoma) [nM] | GI50 (SR leukemia) [nM] | GI50 (A549 NSCLC) [nM] | GI50 (OVCAR-5 ovarian) [nM] |
| --- | --- | --- | --- | --- | --- | --- | --- | --- | --- | --- | --- | --- | --- | --- | --- | --- | --- | --- | --- |
| COc1cc(-c2nc(SC)nc3c2CCc2ccccc2-3)cc(OC)c1OC | > 100 | > 100 | > 100 | > 100 | > 100 | > 100 |  |  |  |  |  |  |  |  |  |  |  |  |  |
| O=NNc1c[nH]c(=O)[nH]c1=O | > 100 | > 100 | > 100 | > 100 |  | > 100 | > 100 | > 100 |  |  |  |  |  |  |  |  |  |  |  |
| CCOP(=O)(Cc1nc(C#N)c(N)o1)OCC |  | > 100 | > 100 |  | > 100 |  | > 100 | > 100 | > 100 | > 100 |  |  |  |  |  |  |  |  |  |
| COc1ccc(/C=C(/c2ccc(OC)cc2)c2c(Cl)cc(Cl)c(/C(=C\c3ccc(OC)cc3)c3ccc(OC)cc3)c2N=Nc2ccccc2)cc1 | > 100 | > 100 | > 100 | > 100 | > 100 | > 100 |  | > 100 | > 100 |  |  |  |  |  |  |  |  |  |  |
| OC(CCl)CN1CC[N+]2(CC1)CC[N+]1(CCN(CC(O)CCl)CC1)CC2 (centres undefined) | > 50 | > 50 |  | > 50 |  |  |  | > 50 | > 50 | > 50 |  |  |  |  |  |  |  |  |  |
| COC(=O)C(CNC(=O)/C=C/c1ccc(OC(C)=O)c(OC(C)=O)c1)NC(=O)/C=C/c1ccc(OC(C)=O)c(OC(C)=O)c1 (centres undefined) | > 100 | > 100 | > 100 | > 100 | > 100 |  | > 100 | > 100 | > 100 | > 100 |  |  |  |  |  |  |  |  |  |
| c1ccc(OCc2nnc(CCCCCCCCc3nnc(COc4ccccc4)o3)o2)cc1 | > 100 | > 100 | > 100 | > 100 | > 100 | > 100 | > 100 |  | > 100 |  |  |  |  |  |  |  |  |  |  |
| CN1C/C(=C\c2cccs2)C(=O)/C(=C/c2cccs2)C1 | 74 | > 100 | > 100 | > 100 | 66.8 | 94.5 | 61.7 | > 100 | > 100 |  |  |  |  |  |  |  |  |  |  |
| CC1=C(C(=O)NCc2ccccc2)C(c2ccco2)C(C(=O)NCc2ccccc2)=C(C)N1 | > 100 | > 100 | > 100 | > 100 | > 100 |  |  | > 100 | > 100 | > 100 |  |  |  |  |  |  |  |  |  |
| Cc1cc(O)c(C(C)C)cc1C(=S)Nc1ccc(Cl)cc1 | 24.2 | 28.6 | 23.8 |  | 28.3 | 34.5 | 23.7 | 21.9 | 27.4 | 20.4 |  |  |  |  |  |  |  |  |  |
| O=[N+]([O-])c1ccc(Nc2cccc3c2[nH]c2c(-c4ccccc4)nccc23)c([N+](=O)[O-])c1 | > 100 | > 100 | > 100 | > 100 | > 100 | > 100 |  | > 100 | > 100 |  |  |  |  |  |  |  |  |  |  |
| CCOC(=O)C1=C(C)N(Cc2ccccc2)C2(O)C(OC)CC(=O)C3C(=O)N(c4ccccc4)C(=O)C132 (centres undefined) | 31.9 | 23.3 | 37.7 | > 100 | > 100 | > 100 |  | 36.7 | > 100 | 86.8 |  |  |  |  |  |  |  |  |  |
| COc1ccc(C2NC(N)=C(C#N)C3=C2C(C)CCC3)cc1OC (centres undefined) | > 100 | > 100 | > 100 |  | > 100 | > 100 | > 100 | > 100 |  | 23 |  |  |  |  |  |  |  |  |  |
| O=C(CN1CCN(c2ccccn2)CC1)N1CCCn2c1nc1ccccc1c2=O | > 100 |  | > 100 | > 100 | > 100 | > 100 | > 100 | > 100 | > 100 | > 100 |  |  |  |  |  |  |  |  |  |
| Cc1ccc2c(=O)cc(-c3cccc(F)c3)[nH]c2n1 | 1.87 | > 100 | > 100 | > 100 | > 100 |  | 0.0362 | > 100 |  |  |  |  |  |  |  |  |  |  |  |
| NC(=S)NS(=O)(=O)c1ccc(Cl)cc1 | > 100 | > 100 | > 100 | > 100 | > 100 | > 100 | > 100 | > 100 | > 100 |  |  |  |  |  |  |  |  |  |  |
| Cc1cc(OCC(O)CO)ccc1Cl (centres undefined) | > 100 | > 100 | > 100 | > 100 | > 100 |  |  | > 100 | > 100 | > 100 |  |  |  |  |  |  |  |  |  |
| CCCCCCCCCCOc1ccc(N=Nc2nnc(-c3ccc(OCCCCC)cc3)s2)cc1 | > 100 | > 100 | > 100 | > 100 | > 100 | > 100 | > 100 | > 100 | > 100 |  |  |  |  |  |  |  |  |  |  |
| CCN(CCC#N)C(=O)Nc1ccccc1 | > 100 | > 100 | > 100 | > 100 | > 100 | > 100 | > 100 | > 100 | > 100 |  |  |  |  |  |  |  |  |  |  |
| CC1CN=C(c2ccc(CN3CCC(CCCC4CCN(Cc5ccc(C6=NCC(C)N6)cc5)CC4)CC3)cc2)N1 (centres undefined) | > 100 | > 100 | 45.9 | > 100 | 63 | > 100 | 38.8 | > 100 | 36.8 |  |  |  |  |  |  |  |  |  |  |
| CC(C)(C)CC(C)(C)NCC(O)COc1ccc(C(C)(C)c2ccc(OCC(O)CNC(C)(C)CC(C)(C)C)cc2)cc1 (centres undefined) | 3.25 | 1.85 |  | 3.02 | 3.32 | 2.84 |  | 2.96 | 0.782 |  | 1410 |  |  |  |  |  |  |  |  |
| COc1ccc(C2=NN(c3nsc4ccccc34)C(=O)CC2)cc1 | > 100 | > 100 | > 100 | > 100 | > 100 |  |  |  | > 100 | > 100 |  |  |  |  |  |  |  |  |  |
| COc1ccc(S(=O)(=O)Nc2cc(Sc3cccc4cccnc34)c(O)c3ccccc23)cc1 | 18.8 | 13.2 | 6.04 | 12.8 | 12.7 | 12.2 |  | 11.5 | 10.5 | > 100 | 707 | 466 | 595 | 2880 | 2550 | 1850 | 358 | 587 | 2830 |
| COc1cccc(N(CN2C(=O)CCC2OC)C(C)=O)c1 (centres undefined) | > 100 | > 100 | > 100 | > 100 | > 100 | > 100 | > 100 |  | > 100 | > 100 |  |  |  |  |  |  |  |  |  |
